Test results reported in ChEMBL document CHEMBL1201862, “PubChem BioAssay data set” (2004).
The source made the active and inactive calls.

Columns and labels:
[1] = inhibitors of clade B AD8 Env fusion, dose response, cell-based, cherry-pick (AID 652062); type: functional;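 further: luciferase signal from cell-cell fusion driven by HIV-1 clade B AD8 Env; potency is for inhibitors of fusion seen as a drop in luminescence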
[2] = cytotoxicity in HEK-293T cells, dose response, cytotoxicity control for TCR NF-kB inhibitor project, luminescence, T-cell screen hits (AID 489026); type: functional, cell-based;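 further: cells exposed to compound about 14 hours before the viability readout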
[3] = ZM109 Env clade C HIV-1 fusion inhibitors, dose response, HeLa effector, CEM target cells, luciferase, cherry-pick (AID 652058); type: functional, cell-based
[4] = inhibitors of HIV Env-driven cell fusion, dose response, cherry-pick (AID 652057); type: functional, cell-based
[5] = MC4R antagonists, dose response, counter-screen for LGR2 antagonist project, cell-based, plate reader, cherry pick (AID 743444); type: functional;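 further: transfected HEK 293 cells stimulated with alpha-MSH peptide; potency of inhibitors of the alpha-MSH evoked signal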
[6] = tested on: HEK293; experiment: cells; type: functional, cell-based; details: Homo sapiens
[7] = HEK293 cell cytotoxicity, dose response, cytotoxicity control, plate reader, cherry-picked samples (AID 743446); type: functional, cell-based
[8] = HepG2 cell cytotoxicity, dose response, cytotoxicity control, plate reader, cherry-pick, antagonist series (AID 743416); type: functional, cell-based
[9] = target: T1, Microphthalmia-associated transcription factor (Homo sapiens, UniProt O75030); experiment: TRPM1 promoter luciferase signal decrease, dose response, MITF inhibitor project, cell-based, SK-MEL-5, cherry-picked, set 3 (AID 493073); type: functional
T1 sequence (O75030 whole entry): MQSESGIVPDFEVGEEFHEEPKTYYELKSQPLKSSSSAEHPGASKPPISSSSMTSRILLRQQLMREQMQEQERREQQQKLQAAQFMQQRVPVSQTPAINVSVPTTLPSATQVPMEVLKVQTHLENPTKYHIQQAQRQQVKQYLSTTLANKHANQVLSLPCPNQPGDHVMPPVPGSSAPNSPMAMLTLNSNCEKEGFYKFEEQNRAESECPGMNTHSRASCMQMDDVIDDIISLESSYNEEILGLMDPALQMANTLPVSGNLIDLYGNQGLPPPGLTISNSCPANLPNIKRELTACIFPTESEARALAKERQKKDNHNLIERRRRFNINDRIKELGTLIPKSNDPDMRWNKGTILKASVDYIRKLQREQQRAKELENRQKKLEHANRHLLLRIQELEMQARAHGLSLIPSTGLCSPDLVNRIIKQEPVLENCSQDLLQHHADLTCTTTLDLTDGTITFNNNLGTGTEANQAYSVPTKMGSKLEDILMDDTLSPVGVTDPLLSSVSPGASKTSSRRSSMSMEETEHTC

[10] = target: Nucleotide-binding oligomerization domain-containing protein 2 (Homo sapiens, UniProt Q9HC29); experiment: NOD2 signaling inhibitors, cell-based, luminescence, uHTS, HEK293 (AID 1566); type: functional
Sequence of Nucleotide-binding oligomerization domain-containing protein 2 (Q9HC29 whole entry, the tested form may be a part): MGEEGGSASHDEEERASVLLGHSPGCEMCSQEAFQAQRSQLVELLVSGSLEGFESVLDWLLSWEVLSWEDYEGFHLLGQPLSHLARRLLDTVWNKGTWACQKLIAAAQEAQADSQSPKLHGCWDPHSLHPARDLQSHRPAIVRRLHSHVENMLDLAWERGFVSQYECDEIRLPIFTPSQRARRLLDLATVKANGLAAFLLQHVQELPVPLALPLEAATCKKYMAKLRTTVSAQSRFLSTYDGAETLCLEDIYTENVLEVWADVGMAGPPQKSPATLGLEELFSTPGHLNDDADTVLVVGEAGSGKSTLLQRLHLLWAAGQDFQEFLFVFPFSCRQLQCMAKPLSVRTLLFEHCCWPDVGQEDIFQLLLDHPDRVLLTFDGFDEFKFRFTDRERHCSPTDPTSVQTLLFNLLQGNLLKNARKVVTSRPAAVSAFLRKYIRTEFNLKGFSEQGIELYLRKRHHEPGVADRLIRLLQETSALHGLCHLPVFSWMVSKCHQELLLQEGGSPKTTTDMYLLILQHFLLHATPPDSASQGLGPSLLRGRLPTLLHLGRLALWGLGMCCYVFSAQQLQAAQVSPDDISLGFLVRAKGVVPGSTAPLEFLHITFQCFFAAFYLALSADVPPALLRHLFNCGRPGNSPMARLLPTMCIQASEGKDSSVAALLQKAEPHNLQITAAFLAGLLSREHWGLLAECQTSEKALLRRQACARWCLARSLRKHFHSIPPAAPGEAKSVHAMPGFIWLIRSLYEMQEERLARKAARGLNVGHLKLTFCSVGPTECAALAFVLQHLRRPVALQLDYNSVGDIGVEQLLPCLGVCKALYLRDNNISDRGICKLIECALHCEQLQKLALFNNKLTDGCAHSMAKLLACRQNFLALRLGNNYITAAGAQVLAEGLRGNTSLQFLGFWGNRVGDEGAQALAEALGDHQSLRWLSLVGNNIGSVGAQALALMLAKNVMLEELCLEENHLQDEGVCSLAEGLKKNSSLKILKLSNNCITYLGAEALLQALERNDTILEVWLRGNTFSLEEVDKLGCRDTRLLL

[11] = LGR2 antagonists, dose response, cell-based, HEK293, CRE-luciferase reporter, cherry pick, set 2 (AID 743343); type: functional;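 further: transfected cells were stimulated with diluted bursicon conditioned medium after compound addition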
[12] = tested on: HEK293; experiment: cells; type: functional, cell-based; details: Homo sapiens; remark: listed apart in the source
[13] = target: T2, Heat shock factor protein 1 (Mus musculus, UniProt P38532); experiment: inhibition of MG132-induced HSE-luciferase signal, confirmation, cell-based, NIH3T3, luminescence, dose retest (AID 2382); type: functional;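 further: NIH3T3 fibroblasts with HSF1-driven luciferase reporter stressed by proteasome inhibitor MG132; luminescence from HSF1-driven luciferase expression after 8 hours of MG132 stress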
T2 sequence (P38532 whole entry): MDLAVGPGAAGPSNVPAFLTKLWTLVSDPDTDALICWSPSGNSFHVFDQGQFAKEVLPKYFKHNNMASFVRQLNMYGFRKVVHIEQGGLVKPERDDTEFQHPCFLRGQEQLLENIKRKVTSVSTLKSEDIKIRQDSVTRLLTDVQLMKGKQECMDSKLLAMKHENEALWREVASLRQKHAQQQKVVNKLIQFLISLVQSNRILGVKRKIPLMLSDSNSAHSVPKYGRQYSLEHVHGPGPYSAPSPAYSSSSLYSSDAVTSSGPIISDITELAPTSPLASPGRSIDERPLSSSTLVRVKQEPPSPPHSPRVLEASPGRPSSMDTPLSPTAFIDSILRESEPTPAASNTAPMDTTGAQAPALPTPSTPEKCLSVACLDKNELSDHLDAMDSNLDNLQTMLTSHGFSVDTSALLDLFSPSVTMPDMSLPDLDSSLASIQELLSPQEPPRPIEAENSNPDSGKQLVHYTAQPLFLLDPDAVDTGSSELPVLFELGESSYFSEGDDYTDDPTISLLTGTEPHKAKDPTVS

[14] = tested on: HEK293; experiment: NOD1 signaling inhibitors, primary screen, cell-based, luminescence, uHTS (AID 1578); type: functional; details: Homo sapiens
[15] = tested on: HEK293; experiment: NOD2 signaling inhibitors in MDP-stimulated cells, cell-based, uHTS, luminescence (AID 2001); type: functional; details: Homo sapiens
[16] = target: Photoreceptor-specific nuclear receptor (Homo sapiens, UniProt Q9Y5X4); type: functional, cell-based;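 further: CHO-S cells with Gal4-NCOR and VP16-NR2E3 two-hybrid luciferase reporter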
Sequence of Photoreceptor-specific nuclear receptor (Q9Y5X4 whole entry, the tested form may be a part): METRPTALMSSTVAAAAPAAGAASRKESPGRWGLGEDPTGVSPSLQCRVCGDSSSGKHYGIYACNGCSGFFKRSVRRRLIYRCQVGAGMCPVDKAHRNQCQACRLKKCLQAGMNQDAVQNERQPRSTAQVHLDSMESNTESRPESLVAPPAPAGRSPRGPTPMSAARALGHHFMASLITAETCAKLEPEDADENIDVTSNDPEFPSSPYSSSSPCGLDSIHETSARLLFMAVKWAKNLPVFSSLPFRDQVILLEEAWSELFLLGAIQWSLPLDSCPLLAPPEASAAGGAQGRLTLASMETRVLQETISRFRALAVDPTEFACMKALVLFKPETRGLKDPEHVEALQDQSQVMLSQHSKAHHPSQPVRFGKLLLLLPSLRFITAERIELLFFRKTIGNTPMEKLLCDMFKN

[17] = tested on: HEK293; experiment: cells; type: functional, cell-based; details: Homo sapiens; remark: listed apart in the source
[18] = A549 cell cytotoxicity, dose response, cytotoxicity control, plate reader, cherry-pick, antagonist series (AID 743412); type: functional, cell-based

SMILES	AC50 [1]	IC50 [2]	AC50 [3]	AC50 [4]	AC50 [5]	IC50 [6]	AC50 [7]	AC50 [8]	AC50 [9]	EC50 [10]	AC50 [11]	IC50 [12]	EC50 [13]	EC50 [14]	IC50 [15]	IC50 [16]	IC50 [17]	AC50 [18]
Clc1ccc2c(c1)C(C1=NCCN1)c1ccccc1CS2 (stereo not drawn)	4.39 µM (active)	> 80 µM (inactive)	2.07 µM (active)	1.48 µM (active)														
Cc1cc(C)c(C#N)c(SCc2nnc(-c3ccccc3)o2)n1					0.321 µM (active)	> 20 µM (inactive)	> 52 µM (inactive)	> 52 µM (inactive)	0.024 µM (active)	< 0.31 µM (inactive)	0.281 µM (active)	6.41 µM (active)	< 0.16 µM (active)	10.5 µM (active)	12.6 µM (inactive)	35.7 µM (inactive)	> 20 µM (inactive)	> 52 µM (inactive)
